Results from patent US20250177349A1, “ARYL ALKYNAMIDE DERIVATIVES” (Astellas Pharma, Inc., priority 2022, published 2025).

System: drug-induced Sjogren's syndrome-like salivary dysfunction
Assay: Test on drug-induced Sjogren's syndrome-like salivary dysfunction in mice
Type: in vivo
Conditions: female C57BL/6J mice, DMXAA 20 mg/kg s.c. four times weekly, test compound orally once a day for 8 days; FIGS. 1-3
Experimental: Female C57BL/6J mice (8-10-weeks-old) were injected subcutaneously with 20 mg/kg of DMXAA or its vehicle, 5% NaHCO3, four times at weekly intervals. From the day after the last DMXAA challenge, mice were orally administered the test compound or its vehicle once a day for 8 days. On the following day, saliva was collected from mice using a cotton swab under awake conditions, and saliva weight during 15 min was measured and evaluated as an indicator of salivary gland function.

Row | Compound | saliva production (saliva weight during 15 min)
1 | O=C(C#Cc1ccc(-c2ccccc2)c(C(F)(F)F)c1)N1C[C@@H](O)[C@@H](O)C1 [Example 33, 1-[(3R,4S)-3,4-dihydroxypyrrolidin-1-yl]-3-[2-(trifluoromethyl)[1,1′-biphenyl]-4-yl]prop-2-yn-1-one] | significantly improved saliva production
2 | NC(=O)C1CCN(C(=O)C#Cc2ccc(-c3ccccc3)c(C(F)(F)F)c2)CC1 [Example 34, 1-{3-[2-(trifluoromethyl)[1,1′-biphenyl]-4-yl]prop-2-ynoyl}piperidine-4-carboxamide] | significantly improved saliva production
3 | N=S1(=O)CCN(C(=O)C#Cc2ccc(-c3ccccc3)c(C(F)(F)F)c2)CC1 [Example 99, 1-imino-4-{3-[2-(trifluoromethyl)[1,1′-biphenyl]-4-yl]prop-2-ynoyl}-1λ^6-thiomorpholin-1-one] | significantly improved saliva production
